Here are results for six compounds from patent publication EP0719546B1, “LUV comprising saturated phospholipids and method of making the same” (THE LIPOSOME COMPANY, INC., priority 1987, dated 1988).

Data set [1] in a line: Drug uptake into EPC large unilamellar vesicles with proton gradient. The format is physicochemical. The note with it: 300 mM citric acid pH 4.0 inside, pH 7.5 outside; for encapsulation by the vesicles: EPC LUVs (100 nm filters), 25°C. As to the method: Egg phosphatidylcholine (15 mg) was dispersed in 2 ml of 300 mM citric acid, pH 4.0 and the resulting MLVs frozen in liquid nitrogen and thawed in warm water (approximately 35°C) a total of five times. The lipid was then extruded 10 times through two stacked 100 nm pore size polycarbonate filters using the LUVET procedure. A proton gradient was created by passage of the vesicles over a Sephadex G-50 (fine) column (1.5 cm x 10 cm) preequilibrated with 300 mM NaCl, 20 mM HEPES, pH 7.5. An aliquot of the large unilamellar vesicles eluted from the column was diluted in 300 mM NaCl, […], pH 7.5 to a lipid concentration of 0.75 mgml^-1 in a total volume of 2 ml and then daunorubicin (113 ug) added from a stock solution (5.64 mgml^-1) in distilled water. The mixture was incubated at room temperature (25°C) and at intervals of 2, 10, 20, 30, 60 and 120 minutes, 100 ul aliquots were centrifuged through 1 ml "minicolumns" of Sephadex G-50 (fine) to remove any unencapsulated daunorubicin from the vesicles. The concentration of entrapped daunorubicin was determined from its absorbance at 500 nm in a Shimadzu UV-265 spectrophotometer following solubilization of the vesicles in 1% Triton X-100. Lipid was quantified by liquid scintillation counting using tracer levels of ^3H-DPPC. In excess of 98% of the daunorubicin was encapsulated by the vesicles giving a drug to lipid molar ratio of 1:5.
The materials and procedures of Example 30 were employed except that epirubicin (116 ug) was addded to the vesicle suspension (2 ml) from a stock solution (5.8 mgml^-1). Epirubicin uptake was quantified from its absorbance at 500 nm following solubilization of the vesicles in 1% Triton X-100. Epirubicin encapsulation by the vesicles was in excess of 98% giving a drug to lipid molar ratio of 1:5.
The materials and procedures of Example 30 were employed except that mitoxanthrone (103 ug) was added to the vesicle suspension (2 ml) from a stock solution (2 mgml^-1). Mitoxantrone uptake was quantified from its absorbance at 670 nm following solubilization of the vesicles in 2% Triton X-100. Mitoxantrone encapsulation by the vesicles was in excess of 98% giving a drug to lipid molar ratio of 1:5.
The materials and procedures of Example 30 were employed except that cisplatin (200 uM) was combined with the liposome suspension.

Data set [2] is described as follows: In vitro release of doxorubicin from liposomes under dialysis. The format is physicochemical. The note with it: vesicles containing 300 mM citrate (pH 4.0), drug to lipid (wt/wt) ratio 1:10 to 1:3, over 24 hours. As to the method:
The materials and-procedures of Example 6 were employed to determine the in vitro stability of the liposome-doxorubicin preparations. Release experiments were performed as follows: 10-fold dilute liposome samples were dialyzed for 24 hours against 1000 volumes of 20 mM HEPES, 150 mM NaCl (pH 7.5) at 37°C. At 1, 2, 4, 8, 10, and 24 hours post-preparation, a 150 ul aliquot was removed and the entrapped doxorubicin was determined.
EPC/cholesterol (55/45 mole ratio) was dried from chloroform to a thin film on a 500 ml capacity round bottom flask (400 mg total lipid). The film was hydrated with 4.0 ml of 300 mM citric acid at pH 4.0, forming MLVs. These MLVs were extruded through 2 stacked 0.22 um Nucleopore membrafil filters followed by extrusion 10 times through a 0.1 um Nucleopore membrafil (tortuous path) filter. To 1.0 ml of the resulting filtrate sample was added 275 ul of 1M Na2CO3, which raised the exterior pH to 8.3. An aliquot (0.6 ml) was heated for 3 minutes at 60°C, as was a 10 mg sample of doxorubicin. The liposome aliquot was added to the 10 mg doxorubicin and heated at 60°C for 5 minutes. The sample was divided into 2 parts. […] At 1 hour, a 150 ul aliquot was removed and analyzed for doxorubicin and lipid phosphate as previously described, after passage down a 1.0 ml Sephadex column equilibrated in the respective buffer. […]

Data set [3] is described as follows: Doxorubicin entrapment (trapping) efficiency, transmembrane pH gradient loading. The format is physicochemical. As to the method:
In order to determine whether an ionizable antineoplastic agent will load into liposomes in response to a transmembrane pH gradient, EPC-containing liposomes are made (about 1.0 mM EPC) with a ^3H-DPPC tracer and with a relatively acidic or basic internal medium such as 300 mM citric acid at about pH 4.0. These liposomes are extruded about 10 times according to the LUVET procedure through 2 100 nm filters, followed by adjustment of the external pH to a relatively basic or acidic pH, for example, sodium carbonate, at about pH 11.0. Following the formation of the pH gradient, the agent to be loaded, spiked with a radioactive isotope of the agent, is admixed with the liposomes to about 200 uM (per 1.0 mM lipid used). The liposomes are separated from free, unentrapped agent on G50-M Sephadex minicolumns at 500 X g for 3 minutes into 13 X 100 mm tubes, and radioactivity counted in a scintillation counter. Uptake of the drug in nmoles per umole of lipid is then plotted over incubation time. One hundred percent of the available doxorubicin is taken up into liposomes under these conditions.
In the case of doxorubicin, commercially available forms, such as powdered, solid, and methylparaben-containing forms (Adriamycin R.D.F., Adria Laboratories, Inc., Columbus, Ohio) may be used in the invention. When the methylparaben-containing form is employed, an aqueous solution such as saline may be added to that form, thereby dissolving it, followed by the admixing of this suspension with the liposomes which have the transmembrane pH gradient across their bilayers. Such admixing at 60°C for about 10 minutes results in more than about 98% encapsulation of the doxorubicin.
To determine entrapment efficiency of the liposome preparations, free and liposome encapsulated doxorubicin was monitored spectrophotometrically employing a Shimadzu UV-160 spectrophotometer as follows: the liposomal-doxorubicin samples were diluted with 20 mM Hepes, 250 mM NaCl (pH 7.5) to achieve approximate doxorubicin concentrations between 0.05-0.10 mM. The following sequence of measurements was made; (1) the absorbance at 600 nm of the diluted sample was adjusted to zero; (2) the sample was alkalinized to pH 10.5 with 1.0 N NaOH (0.02 ml/1.0 ml of sample) and the absorbance at 600 nm was recorded within 2 minutes; (3) the spectrophotometer was zeroed against a 0.2% Triton X-100 solution, and (4) the absorbance at 600 nm of the liposomal-doxorubicin sample to which Triton X-100 had been added (0.02 ml 20% Triton X-100 wt./wt./1.0 ml of sample) was determined. Free:total doxorubicin ratios were calculated as the absorbance at 600 nm upon NaOH addition divided by the absorbance after Triton X-100 addition.
To relate the pH-dependent spectral response technique to actual free and trapped drug levels, vesicle entrapped doxorubicin was determined as follows: A small aliquot of the liposomal-doxorubicin solution was passed down Sephadex G-50 gel columns equilibrated in 20 mM Hepes, 150 mM NaCl (pH 7.5) to separate free from liposome-associated drug. The liposome-containing eluant as well as aliquots of the original solutions were assayed for phospholipid and doxorubicin by phosphorus analysis and optical density at 480 nm, respectively as previously described in Mayer et al., (1986), Biochim Biophys. Acta., 857:123.
The materials and procedures of Example 3 were employed, but entrapment efficiency of liposome encapsulated doxorubicin was monitored by comparison of the color resulting from addition of an aliquot (0.2 ml) of the liposomes to 1.0 N NaOH to a color chart.
After completion of the entrapment procedure according to Example 6, 20 ul of the doxorubicin-liposomes were diluted to 200 ul with 20 mM HEPES, 150 mM NaCl (pH 7.5). An aliquot of this diluted sample (20 ul) was assayed for lipid phosphate by the procedure of Bartlett, J. Biol. Chem. 1959, 234:466-468. […]

A further data set concerns SC-115 cells. The experiment in a line: SC-115 tumor growth in Shinogi mice. The format is in vivo, Male Shinogi mice. The note with it: SC-115 tumor, 3.25, 6.5 and 13 mg/kg i.v., 3 injections at seven day intervals. The method, then:
Male Shinogi mice (25-40g, 9 per group) were injected subcutaneously with 1X10^5 SC-115 cells obtained from a primary tumor in previously inoculated mice. Tumor growth was monitored by palpation and tumor measurements with a vernier caliper. Upon growth of the tumor to 0.5-2.0 g (tumor weight = [width^2 x length]/2, measurements in mm), mice were administered liposomal doxorubicin dose of 13 mg/kg i.v. at seven day intervals (3 injections of the indicated dose). Tumor growth was monitored 3 times weekly for 50 days post first treatment or until the tumor weight exceeded 9 g at which time the animal was sacrificed. Treatment doses were based on the initial animal weights prior to tumor inoculation.
The above procedure was repeated and the mice were administered saline or empty liposomes (administered at a dose equivalent to that given for a liposomal doxorubicin dose of 13 mg/kg).
The above procedure was repeated at 3.25 mg/kg dose and 6.5 mg/kg dose for free and liposomal doxorubicin.

The nature of data set [4]: Vincristine trapping efficiency, pH gradient loading. The note with it: DSPC/cholesterol (55:45) liposomes, 300 mM citric acid pH 4.0, 200 nm filter, drug to lipid approximately 0.17:1, external pH about 7.0, 60°C for 10 minutes. The format is physicochemical. The method, then: These MLVs (100 mg total lipid/ml buffer) were extruded 10 times through a 200 nm pore size polycarbonate filter in a thermojacket LUVET heated to 60°C. Liposomes were added to a solution of 1 mg/ml vincristine sulfate (Oncovin, available from Eli Lilly and Co., Indianapolis, IN) to achieve a drug to total lipid weight ratio of approximately 0.17:1. To this was added a sufficient amount of 1.0 M Na2HPO4 to bring the pH of the solution to about 7.0. The samples were then heated at 60°C for 10 minutes at which time the drug was encapsulated inside the liposomes at a trapping efficiency in excess of 98%.
The above was repeated using EPC/cholesterol and HSPC/cholesterol.

A further data set has as its system ascites L1210 tumor line. The experiment in a line: Antitumor activity of vincristine, L1210 lymphocytic leukemia model. The format is in vivo, DBA/2J mice. The note with it: L1210 model in mice. The method, then: The antitumor activity of free and liposomal vincristine was assessed employing an L1210 lymphocytic leukemia model. DBA/2J mice (6 mice per group) were injected i.p. with 1 X 10^6 L1210 cells derived from the ascites fluid of a previously infected mouse. Liposomal vincristine made according to Example 27 was administered i.v. at various times after tumor innoculation and animal weights as well as mortality rates were monitored.
The above example was repeated by administering free vincristine and empty liposomes.

Where a name gives a salt, the structure may show the parent alone.

As for `N.N.[Cl][Pt][Cl]` [Cisplatin, cisplatin], the “accumulation into liposomes by the transmembrane pH gradient” value in data set [1] (EPC LUVs, 200 uM drug) was “not accumulated”.

In the case of `COc1cccc2c1C(=O)c1c(O)c3c(c(O)c1C2=O)C[C@@](O)(C(=O)CO)C[C@@H]3O[C@H]1C[C@H](N)[C@@H](O)[C@H](C)O1` [Epirubicin, epirubicin], the “encapsulation by the vesicles” value in data set [1] is on record as more than 98%.

For the compound `O=C1c2c(O)ccc(O)c2C(=O)c2c(NCCNCCO)ccc(NCCNCCO)c21` [Mitoxantrone, mitoxanthrone], in data set [1], the “encapsulation by the vesicles” value is given as more than 98%.

As to `COc1cccc2c1C(=O)c1c(O)c3c(c(O)c1C2=O)C[C@@](O)(C(C)=O)C[C@@H]3O[C@H]1C[C@H](N)[C@H](O)[C@H](C)O1` [daunorubicin], the “encapsulation by the vesicles” value in data set [1] is more than 98%.

As to `COc1cccc2c1C(=O)c1c(O)c3c(c(O)c1C2=O)C[C@@](O)(C(=O)CO)C[C@@H]3O[C@H]1C[C@H](N)[C@H](O)[C@H](C)O1` [doxorubicin], the drug released entry in data set [2] is on record as “less than 5%”. In addition, in data set [3] (EPC liposomes (about 1.0 mM), 300 mM citric acid pH 4.0 inside, 100 nm filters, external sodium carbonate, about 200 uM agent), the “available doxorubicin taken up into liposomes” value is recorded as “One hundred”. The trapping efficiency entry in data set [3] (Example 14: HSPC/cholesterol 2.4:1 weight ratio, 300 mM citric acid pH 4.0, 0.2 um filter, external pH 8.5, 15 minutes at 60°C, color test) is on record as “greater than 95%”. Besides, the entrapment efficiency result in data set [3] (Example 21: DSPC liposomes, 300 mM citric acid pH 4.0, 0.2 um filters, external pH 7.8, drug to lipid ratio 0.25:1, 60°C for 5 minutes) was “greater than 95%”. The “drug entrapped by the liposomes” value in data set [3] (Example 26: EPC/cholesterol (55:45 mol ratio), methods of Example 2) is on record as “Greater than 98%”. In data set [3] (methylparaben-containing form (Adriamycin R.D.F.) dissolved in saline, admixed with pH gradient liposomes at 60°C for about 10 minutes), the “encapsulation of the doxorubicin” value is given as “more than 98%”. The entrapment result in data set [3] (vesicles containing 300 mM citrate (pH 4.0), drug to lipid (wt/wt) ratio between 1:10 and 1:3) is given as “about 100%”. Also, the trapping efficiencies entry in data set [3] (vesicles, drug to lipid ratios (wt/wt) 0.1:1 to 0.3:1, neutral, negatively charged or saturated phospholipids, varying cholesterol) was “about 100%”. For the same compound, in the data set with SC-115 cells, the tumor growth inhibition result is listed as “dose dependent tumor growth inhibition”.

On to `CC[C@]1(O)C[C@H]2CN(CCc3c([nH]c4ccccc34)[C@@](C(=O)OC)(c3cc4c(cc3OC)N(C=O)[C@H]3[C@@](O)(C(=O)OC)[C@H](OC(C)=O)[C@]5(CC)C=CCN6CC[C@]43[C@@H]65)C2)C1` [vincristine, vincristine sulfate], for which the trapping efficiency in data set [4] is more than 98%. In addition, the “efficacy against the ascites L1210 tumor line” value in the data set with ascites L1210 tumor line is “no efficacy”.
